The test concerns AKT phosphorylation (pAKT) at position Ser473. The experiment in a line: FBS stimulated AKT (S473) phosphorylation in primary human lung fibroblasts, MSD assay (Example 2). Conditions: Fibroblast, 0.5 h, 20% FBS 30 minute, read-out: mean pIC50, AKT (S473) phosphorylation (converted). The test is classed as cell-based. The method, then: Primary human fibroblasts were isolated by explant culture from non-IPF lung tissue, obtained post mortem following sudden trauma, and IPF lung tissue obtained from the lungs of IPF patients which were removed for transplantation or biopsy. Explants were cultured in DMEM containing high glucose and sodium pyruvate (PAA laboratories, catalogue #E15-011) with penicillin/streptomycin (Sigma #P4333), amphotericin B (Sigma #A2942), L-glutamine (Gibco #25030) and 20% FBS (foetal bovine serum, Lonza, catalogue #14-801F, Lot #1SB003) at 37° C., 100% humidity, 10% CO2. Cells were designated non-IPF (UCL marked 0110 and 0610) and IPF (UCL marked 0207, 0208, 0308, 0507 and 0508) based on medical diagnosis.
Human lung primary fibroblast cell lines were cultured in DMEM containing high glucose and sodium pyruvate supplemented with L-glutamine, penicillin/streptomycin and 10% FBS (complete DMEM) at 37° C., 100% humidity, 10% CO2. Cells were split into T175 flasks (NUNC #159910) 2 to 3 days prior to assay set-up at a density which yields approximately 70-80% confluence at time of harvest for assay. Cells were harvested using 0.25% trypsin-EDTA (Gibco #25300), washed and re-suspended in complete DMEM. Cell counts were performed on the cell suspension using a Handheld Automated Cell Counter (Millipore #PHCC00000) with 60 μm sensors (Millipore #PHCC60050). […]

Like-named read-outs stand apart in the source and are kept apart here.

For `COc1ncc(-c2ccc3nccc(-c4ccnnc4)c3c2)cc1NS(=O)(=O)c1ccc(F)cc1F` [2,4-difluoro-N-{2-(methyloxy)-5-[4-(4-pyridazinyl)-6-quinolinyl]-3-pyridinyl}benzenesulfonamide], the IC50 was 1.58 nM (IPF fibroblasts, n=5 cell lines (+/-0.1 SEM)) and 0.794 nM (primary human non-IPF fibroblasts, n=2 lines (range 8.8-9.4)).

These data come from patent publication US20160067247A1, “NOVEL USE” (GlaxoSmithKline Intellectual Property (No.2) Limited, priority 2012, published 2016).
